Experimental data published in patent US12559863B2, “Macrocyclic modulators of disease associated protein misfolding and aggregation” (RESQ BIOTECH, priority 2017, dated 2026).
Where a SMILES comes first, the peptide text is derived from it.

Key:
[1] = tested on: primary mouse hippocampal neurons; test: MTT cell viability in primary hippocampal neurons; assay type: cell-based; details: for neurotoxicity of Aβ40: 1 μM Aβ40, 1:1 and 2:1 peptides:Aβ; for neurotoxicity of Aβ40 / neurotoxicity of Aβ42: 24 h, MTT; for neurotoxicity of Aβ42: 1 μM Aβ42, 1:1 and 2:1 peptides:Aβ; for growth-promoting effects or cytotoxicity of peptide on its own: peptide alone, no Aβ
Method: The media/agents for primary neuronal cell cultures were purchased from Thermo Fisher Scientific (USA). Hippocampal neuronal cultures were obtained from postnatal day 1 female pups of C57BL/6 mice. Briefly, after being dissected, the hippocampus was incubated with 0.25% trypsin for 15 min at 37° C. The hippocampi were then rinsed in 10 mL of Hibernate containing 10% (v/v) heat-inactivated fetal bovine serum (FBS). Cultures were maintained in Neurobasal-A medium containing 2% B-27 supplement, 0.5 mM Gluta-MAX and 1% penicillin/streptomycin at 37° C. and 5% CO2. Half of the medium was replaced twice a week. Neuronal hippocampal cells were plated at a density of approximately 2×10^4 per well in 96-well plates and 5×10^5 per well in 24-well plates for MTT and induced cell death assays, respectively. After seven days of incubation in culture well plates, the primary hippocampal neurons were used for the cell viability measurements.
Solutions of synthetic Aβ40 or Aβ42 (10 μM) in PBS, preincubated at 37° C. (3 d for Aβ40 solutions and 1 d for Aβ42 solutions) in the presence or absence of synthetic cyclic peptides (1:1 and 2:1 ratio of peptides:Aβ), were diluted with fresh medium and transferred into wells at a 1 μM final Aβ concentration. Cell viability was determined using the MTT assay. MTT (3-[4,5-dimethylthiazol-2-yl]-2,5-diphenyl tetrazolium bromide) was purchased from Applichem (Germany). After 24 h of exposure to Aβ solutions, 100 μL of a 0.5 mg/mL stock solution of MTT in Neurobasal-A was added to each well of primary hippocampal neurons followed by a 3 h incubation at 37° C., while 100 μL of a 1 mg/mL stock solution of MTT in DMEM complete medium was added to each well of U87MG cells followed by a 4 h incubation at 37° C. The medium was then removed and the cells were diluted in DMSO. The relative formazan concentration was measured by determination of the absorbance at 540 nm using a plate reader (Tecan, Austria). Results were expressed as the percentage of MTT reduction, assuming that the absorbance of control (untreated) cells was 100%, and represent the mean of three independent experiments with six replicate wells for each condition. Induced cell death was also qualitatively examined by phase-contrast microscopy (Carl Zeiss, Axiovert 25 CFL, Germany) using the above solutions. In each run, the effect of solutions of plain synthetic peptides and plain Aβ40 or Aβ42 was independently checked to serve as internal control.

[2] = tested on: C. elegans strain CL2006 (human Aβ42 in body wall muscle cells); test: Paralysis assay in C. elegans CL2006 fed peptide-producing E. coli OP50; assay type: in vivo, Caenorhabditis elegans; details: fed throughout lifespan with E. coli OP50 producing the peptide
Excerpt: To evaluate the protective effects of the selected cyclic peptides against Aβ aggregation and toxicity in vivo, the inventors employed two established models of AD in the nematode worm Caenorhabditis elegans. The conservation of genetic and metabolic pathways between C. elegans and mammals, in combination with its completely characterized nervous and muscular system, its easy visualization and simple manipulation, has nominated C. elegans as an excellent model for neurodegenerative diseases including AD, while chemical screening against Aβ-induced toxicity in C. elegans is increasingly used in AD drug discovery. The inventors performed initially a paralysis assay in CL2006, a strain where human Aβ42 is constitutively expressed in the body wall muscle cells of the animals and Aβ aggregate formation is accompanied by adult-onset paralysis. […] To evaluate the state of Aβ aggregation in vivo, we utilized the strain CL2331, which expresses an Aβ3-42-GFP fusion in its body wall muscle cells upon temperature up-shift.

[3] = biological target: T1, Aβ42-GFP (Homo sapiens, UniProt P05067); test: High-throughput sequencing of pSICLOPPS vectors isolated after bacterial sorting for enhanced Aβ42-GFP fluorescence
T1 construct: a chimeric fusion of the human Aβ(1-42) peptide (Aβ42) with GFP; expressed in transfected cells; host or cells: E. coli BL21(DE3)
T1 sequence (P05067 672-713 limits assumed): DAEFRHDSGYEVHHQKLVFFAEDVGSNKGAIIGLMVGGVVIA
Summary of the method: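 E. coli BL21(DE3) expressing Aβ42-GFP from the T7 promoter was co-transformed with cyclic peptide libraries (0.002% L-arabinose, 0.1 mM IPTG at OD600 ~0.5, 37° C). High-fluorescence cells were sorted over repeated rounds. Plasmid peptide-encoding regions were then sequenced by Ion Torrent, discarding sequences with stop codons.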

SMILES	neurotoxicity of Aβ40 [1]	neurotoxicity of Aβ42 [1]	growth-promoting effects or cytotoxicity of peptide on its own [1]	appearance of paralysis phenotype, CL2006 [2]	Reads/Total SASPT-like reads (%) ([3]; Table 2)	Reads/Total pentapeptide reads (%) ([3]; Table 2)	Reads/Total peptide reads (%) ([3]; Table 2)	Number of reads ([3]; Table 2, after second round of sorting)	Reads/Total TXXXR reads (%) ([3]; after the second round of bacterial sorting, relative to total TXXXR reads)	Reads/Total pentapeptide reads (%) ([3]; after the second round of bacterial sorting, relative to total pentapeptide reads)	Reads/Total peptide reads (%) ([3]; after the second round of bacterial sorting, relative to total peptide reads)	Number of reads ([3]; high-throughput sequencing of isolated pSICLOPPS-NuX1X2X3-X5 vectors after the second round of bacterial sorting for enhanced Aβ42-GFP fluorescence, selected cyclo-TXXXR pentapeptides)
C[C@@H]1NC(=O)[C@H](CO)NC(=O)[C@H]([C@@H](C)O)NC(=O)[C@@H]2CCCN2C(=O)[C@H](CO)NC1=O [AβC5-34, cyclo-SASPT] (cyclo(ASPTS))	markedly inhibit the neurotoxicity	markedly inhibit the neurotoxicity	did not exhibit general growth-promoting effects or considerable cytotoxicity	significant delay	97.349	0.632	0.567	25673	–	–	–	–
C[C@@H]1NC(=O)[C@H]([C@@H](C)O)NC(=O)[C@H](CCCNC(=N)N)NC(=O)[C@H](CC(=O)O)NC(=O)[C@H](Cc2ccccc2)NC1=O [AβC5-116, cyclo-TAFDR] (cyclo(AFDRT))	markedly inhibit the neurotoxicity	markedly inhibit the neurotoxicity	did not exhibit general growth-promoting effects or considerable cytotoxicity	significant delay	–	–	–	–	0.223	0.105	0.094	4,243
